Measured values from ChEMBL document CHEMBL3860105, “Sulfonamide-Based Inhibitors of Aminoglycoside Acetyltransferase Eis Abolish Resistance to Kanamycin in Mycobacterium tuberculosis” (J Med Chem, 2016).

How the values were obtained:
[1] = test system: Mycobacterium tuberculosis; test: (§1) Inhibition of Mycobacterium tuberculosis K204 acetyltransferase Eis assessed as potentiation of kanamycin A-induced antimicrobial activity by measuring kanamycin A MIC level at 37 uM pre-incubated for 24 hrs before kanamycin A addition followed by incubation for 6 days by alamar blue assay (Rvb kanamycin A alone MIC = 10 ug/ml)
[2] = test system: Mycobacterium tuberculosis H37Rv; conditions: 37 uM
[3] = test system: Mycobacterium tuberculosis; test: as §1, with “100” for “37”
[4] = test system: Mycobacterium tuberculosis H37Rv; conditions: 100 uM
[5] = test system: Mycobacterium tuberculosis; test: Antimicrobial activity against Mycobacterium tuberculosis H37Rv at 100 uM incubation for 6 days by alamar blue assay; format: ADME; conditions: 144 h
[6] = test system: Mycobacterium tuberculosis; test: Antimicrobial activity against Mycobacterium tuberculosis K204 at 100 uM incubation for 6 days by alamar blue assay; format: ADME; conditions: 144 h
[7] = test system: Mycobacterium tuberculosis H37Rv
[8] = test system: Mycobacterium tuberculosis; test: Antimicrobial activity against Mycobacterium tuberculosis H37Rv at […] incubation for 6 days by alamar blue assay; format: ADME; conditions: 144 h
[9] = test system: Mycobacterium tuberculosis; test: Antimicrobial activity against Mycobacterium tuberculosis K204 at […] incubation for 6 days by alamar blue assay; format: ADME; conditions: 144 h
[10] = test system: Mycobacterium tuberculosis; test: as §1, with “37 uM” left out
[11] = test system: Mycobacterium tuberculosis; test: Antimicrobial activity against Mycobacterium tuberculosis K204 at 10 uM incubation for 6 days by alamar blue assay; format: ADME; conditions: 144 h
[12] = test system: Mycobacterium tuberculosis H37Rv; conditions: 10 uM
[13] = test system: Mycobacterium tuberculosis; test: Antimicrobial activity against Mycobacterium tuberculosis H37Rv at 10 uM incubation for 6 days by alamar blue assay; format: ADME; conditions: 144 h
[14] = test system: Mycobacterium tuberculosis; test: as §1, with “10” for “37”
[15] = test system: Mycobacterium tuberculosis; conditions: 20 uM
[16] = test system: Mycobacterium tuberculosis H37Rv; conditions: 25 uM
[17] = test system: Mycobacterium tuberculosis; test: Antimicrobial activity against Mycobacterium tuberculosis H37Rv at 25 uM incubation for 6 days by alamar blue assay; format: ADME; conditions: 144 h
[18] = test system: Mycobacterium tuberculosis; test: as §1, with “25” for “37”
[19] = test system: Mycobacterium tuberculosis; test: Antimicrobial activity against Mycobacterium tuberculosis K204 at 25 uM incubation for 6 days by alamar blue assay; format: ADME; conditions: 144 h
[20] = test system: Mycobacterium tuberculosis; test: as §1, with “23” for “37”
[21] = test system: Mycobacterium tuberculosis; test: Antimicrobial activity against Mycobacterium tuberculosis H37Rv at 23 uM incubation for 6 days by alamar blue assay; format: ADME; conditions: 144 h
[22] = test system: Mycobacterium tuberculosis; test: Antimicrobial activity against Mycobacterium tuberculosis K204 at 23 uM incubation for 6 days by alamar blue assay; format: ADME; conditions: 144 h
[23] = test system: Mycobacterium tuberculosis H37Rv; conditions: 23 uM
[24] = test system: Mycobacterium tuberculosis H37Rv; conditions: 30 uM
[25] = test system: Mycobacterium tuberculosis; test: as §1, with “30” for “37”
[26] = test system: Mycobacterium tuberculosis; test: Antimicrobial activity against Mycobacterium tuberculosis H37Rv at 30 uM incubation for 6 days by alamar blue assay; format: ADME; conditions: 144 h
[27] = test system: Mycobacterium tuberculosis; test: Antimicrobial activity against Mycobacterium tuberculosis K204 at 30 uM incubation for 6 days by alamar blue assay; format: ADME; conditions: 144 h
[28] = test system: Mycobacterium tuberculosis; test: Antimicrobial activity against Mycobacterium tuberculosis K204 at 8 uM incubation for 6 days by alamar blue assay; format: ADME; conditions: 144 h
[29] = test system: Mycobacterium tuberculosis; test: as §1, with “8” for “37”
[30] = test system: Mycobacterium tuberculosis H37Rv; conditions: 8 uM
[31] = test system: Mycobacterium tuberculosis; test: Antimicrobial activity against Mycobacterium tuberculosis H37Rv at 8 uM incubation for 6 days by alamar blue assay; format: ADME; conditions: 144 h
[32] = test system: Mycobacterium tuberculosis; test: Inhibition of Mycobacterium tuberculosis AAC(2')-Ic at 200 uM
[33] = test system: Mycobacterium tuberculosis; test: Antimicrobial activity against Mycobacterium tuberculosis H37Rv at 37 uM incubation for 6 days by alamar blue assay; format: ADME; conditions: 144 h
[34] = test system: Mycobacterium tuberculosis; test: Antimicrobial activity against Mycobacterium tuberculosis K204 at 37 uM incubation for 6 days by alamar blue assay; format: ADME; conditions: 144 h
[35] = test system: Mycobacterium tuberculosis H37Rv; conditions: 70 uM
[36] = test system: Mycobacterium tuberculosis; test: Antimicrobial activity against Mycobacterium tuberculosis K204 at 70 uM incubation for 6 days by alamar blue assay; format: ADME; conditions: 144 h
[37] = test system: Mycobacterium tuberculosis; test: Antimicrobial activity against Mycobacterium tuberculosis H37Rv at 70 uM incubation for 6 days by alamar blue assay; format: ADME; conditions: 144 h
[38] = test system: Mycobacterium tuberculosis; test: as §1, with “70” for “37”
[39] = test system: Mycobacterium tuberculosis H37Rv; remark: listed apart in the source

## Cc1cccc(N(C)S(=O)(=O)c2ccc3nc(O)c(O)nc3c2)c1
[1]
  MIC: 2.5 to 5 µg/mL
[2]
  MIC: < 1.25 µg/mL

## CN(c1cccc(C(C)(C)C)c1)S(=O)(=O)c1ccc2[nH]c(=O)c(=O)[nH]c2c1
[3]
  MIC: 5 to 10 µg/mL
[4]
  MIC: < 1.25 µg/mL
[5]
  Activity: Non-Toxic
[6]
  Activity: Non-Toxic

## CCc1cccc(N(C)S(=O)(=O)c2ccc3[nH]c(=O)c(=O)[nH]c3c2)c1
[7]
  MIC: < 1.25 µg/mL
[8]
  Activity: Non-Toxic
[9]
  Activity: Non-Toxic
[10]
  MIC: 5 to 10 µg/mL

## CN(c1ccc(Cl)cc1)S(=O)(=O)c1ccc2[nH]c(=O)c(=O)[nH]c2c1
[11]
  Activity: Non-Toxic
[12]
  MIC: < 1.25 µg/mL
[13]
  Activity: Non-Toxic
[14]
  MIC: 2.5 µg/mL

## CN(c1ccc2ccccc2c1)S(=O)(=O)c1ccc2[nH]c(=O)c(=O)[nH]c2c1
[3]
  MIC: < 1.25 µg/mL
[4]
  MIC: < 1.25 µg/mL
[5]
  Activity: Non-Toxic
[6]
  Activity: Non-Toxic

## Cc1cc(NS(=O)(=O)c2ccc3[nH]c(=O)c(=O)[nH]c3c2)ccc1Br
[15]
  fold change (FC): > 3

## CC(C)c1ccc(N(C)S(=O)(=O)c2ccc3[nH]c(=O)c(=O)[nH]c3c2)cc1
[16]
  MIC: < 1.25 µg/mL
[17]
  Activity: Non-Toxic
[18]
  MIC: 2.5 to 5 µg/mL
[19]
  Activity: Non-Toxic

## CC(C)c1cccc(N(C)S(=O)(=O)c2ccc3[nH]c(=O)c(=O)[nH]c3c2)c1
[20]
  MIC: 2.5 to 5 µg/mL
[21]
  Activity: Non-Toxic
[22]
  Activity: Non-Toxic
[23]
  MIC: < 1.25 µg/mL

## CN(c1ccccc1)S(=O)(=O)c1ccc2[nH]c(=O)c(=O)[nH]c2c1
[3]
  MIC: 5 µg/mL
[4]
  MIC: < 1.25 µg/mL
[5]
  Activity: Non-Toxic
[6]
  Activity: Non-Toxic

## COc1cc(N(C)S(=O)(=O)c2ccc3[nH]c(=O)c(=O)[nH]c3c2)cc2ccccc12
[3]
  MIC: 10 µg/mL
[4]
  MIC: < 1.25 µg/mL
[5]
  Activity: Non-Toxic
[6]
  Activity: Non-Toxic

## O=c1[nH]c2ccc(S(=O)(=O)Nc3ccc(Cl)c(C(F)(F)F)c3)cc2[nH]c1=O
[15]
  fold change (FC): > 3

## CN(c1cccc(F)c1)S(=O)(=O)c1ccc2[nH]c(=O)c(=O)[nH]c2c1
[24]
  MIC: < 1.25 µg/mL
[25]
  MIC: 5 µg/mL
[26]
  Activity: Non-Toxic
[27]
  Activity: Non-Toxic

## O=c1[nH]c2ccc(S(=O)(=O)Nc3ccc4c(c3)OCCO4)cc2[nH]c1=O
[15]
  fold change (FC): > 3

## CN(c1ccc(Br)cc1)S(=O)(=O)c1ccc2[nH]c(=O)c(=O)[nH]c2c1
[28]
  Activity: Non-Toxic
[29]
  MIC: 2.5 µg/mL
[30]
  MIC: < 1.25 µg/mL
[31]
  Activity: Non-Toxic

## COc1cccc(N(C)S(=O)(=O)c2ccc3[nH]c(=O)c(=O)[nH]c3c2)c1
[3]
  MIC: < 1.25 µg/mL
[32]
  inhibition: 15%
[4]
  MIC: < 1.25 µg/mL
[5]
  Activity: Non-Toxic
[6]
  Activity: Non-Toxic

## Cc1cccc(N(C)S(=O)(=O)c2ccc3[nH]c(=O)c(=O)[nH]c3c2)c1
[33]
  Activity: Non-Toxic
[34]
  Activity: Non-Toxic

## CC(C)c1ccc(NS(=O)(=O)c2ccc3[nH]c(=O)c(=O)[nH]c3c2)cc1
[3]
  MIC: 5 µg/mL
[4]
  MIC: < 1.25 µg/mL
[5]
  Activity: Non-Toxic
[6]
  Activity: Non-Toxic

## O=c1[nH]c2ccc(S(=O)(=O)Nc3ccc(Br)cc3)cc2[nH]c1=O
[3]
  MIC: 5 µg/mL
[4]
  MIC: < 1.25 µg/mL
[5]
  Activity: Non-Toxic
[6]
  Activity: Non-Toxic

## COc1cc(OC)cc(N(C)S(=O)(=O)c2ccc3[nH]c(=O)c(=O)[nH]c3c2)c1
[3]
  MIC: 5 to 10 µg/mL
[4]
  MIC: < 1.25 µg/mL
[5]
  Activity: Non-Toxic
[6]
  Activity: Non-Toxic

## CCCCc1cccc(N(C)S(=O)(=O)c2ccc3[nH]c(=O)c(=O)[nH]c3c2)c1
[35]
  MIC: < 1.25 µg/mL
[36]
  Activity: Non-Toxic
[37]
  Activity: Non-Toxic
[38]
  MIC: 5 to 10 µg/mL

## COc1ccccc1N(C)S(=O)(=O)c1ccc2[nH]c(=O)c(=O)[nH]c2c1
[3]
  MIC: 10 µg/mL
[4]
  MIC: < 1.25 µg/mL
[5]
  Activity: Non-Toxic
[6]
  Activity: Non-Toxic

## O=c1[nH]c2ccc(S(=O)(=O)Nc3ccccc3)cc2[nH]c1=O
[3]
  MIC: 10 µg/mL
[4]
  MIC: < 1.25 µg/mL
[5]
  Activity: Non-Toxic
[6]
  Activity: Non-Toxic

## CN(c1cccc(Br)c1)S(=O)(=O)c1ccc2[nH]c(=O)c(=O)[nH]c2c1
[8]
  Activity: Non-Toxic
[39]
  MIC: < 1.25 µg/mL
[9]
  Activity: Non-Toxic
[10]
  MIC: 2.5 µg/mL
